In ChEMBL document CHEMBL1148933, “Tetradehydrohalicyclamine A and 22-hydroxyhalicyclamine A, new cytotoxic bis-piperidine alkaloids from a marine sponge Amphimedon sp” (J Nat Prod, 2004):

Tested on: P388
Test: Cytotoxicity against mouse P388 cells
Assay type: functional, cell-based

Row | Compound | IC50
1 | C1=C2CCCC/C=C\C=C\CCN3CC[C@@H]4[C@H](CCCCCC/C=C\C=C/CCN(C2)C[C@H]14)C3.O=C(O)C(F)(F)F.O=C(O)C(F)(F)F [HALICYCLAMINE A TFA] | 0.45 µg/mL
2 | C1=C\CCCCCC[C@@H]2CN3CC/C=C/C=C\CCCCc4cc(c[n+](c4)CC\C=C/1)[C@@H]2CC3.O=C(O)C(F)(F)F.O=C([O-])C(F)(F)F [TETRADEHYDROHALICYCLAMINE A] | 2.2 µg/mL
